Results: patent publication US20260070887A1 (Shenzhen Zhongge Biological Technology Co., Ltd., priority 2022, published 2026)
Like-named read-outs stand apart in the source and are kept apart here.

Assays:
[1] = target: KIF18A (Homo sapiens (Human), UniProt Q8NI77); assay: KIF18A ATPase activity under tubulin stimulation (ADP-Glo assay); assay type: biochemical; details: KIF18A 30 nM, ATP 150 μM, pig microtubules
[2] = test system: A2780 cells; assay: A2780 cell anti-proliferation assay; assay type: cell-based; details: 6 days, Cell Titer-Glo
Procedure: A2780 (ECACC) cells were cultured in RPMI-1640 complete medium (Gibco, A1049101) containing 10% fetal bovine serum (Gibco, 10099-141C), 100 U penicillin and 100 μg/mL streptomycin (Gibco, 15140-122). The Promega kit Cell Titer-Glo (Promega: G7572) was used in this method for test.
A2780 cells were cultured in T75 cell flasks (Corning, 430641) and the cells were placed in a 37° C., 5% CO2 incubator. Cells were passaged when reaching a cell density of 70%-80%, once every five days. To perform the experiment, the test compounds were dissolved in DMSO to prepare a 10 mM stock solution, and the test compounds were added to the 384-well cell test plate (Corning, 3765) at the predetermined concentration (19.5 nM-[…]) using ECHO. A2780 cells were digested and 4000 cells (60 μL medium) were seeded per well in the test plate. The 384-well plate was then centrifuged at 500 rpm for 1 minute, and then placed in a 37° C., 5% CO2 incubator for 6 days of cultivation. Six days later, the cell culture plate was equilibrated for 10 minutes at room temperature, 25 μL of Cell Titer-Glo was added to each well, and the mixture was shaken and mixed well and let stand for 5 minutes. The luminescence values for samples in various wells were read using a microplate reader in Luminescence mode.
(§1) The percentage of inhibition of A2780 cell proliferation by the test compound at each concentration was calculated by comparing with the values of the control group (0.2% DMSO). The IC50 values of the compounds were obtained by concentration-inhibition rate nonlinear regression analysis of the test compounds using GraphPad Prism 9.

[3] = test system: HT-29 cells; assay: HT-29 cell proliferation (Cell Titer-Glo, 6 days); assay type: cell-based
Procedure: The inhibitory effect on the KIF18A target by the compounds of the present disclosure was evaluated by testing the inhibitory effect on proliferation of HT-29 cells by the compounds of the present disclosure.
HT-29 (ATCC, HTB-38) cells were cultured in McCoy's 5a complete medium (Gibco, 12330-031) containing 10% fetal bovine serum (Gibco, 10099-141C), 100 U penicillin and […] streptomycin (Gibco, 15140-122). The Promega kit Cell Titer-Glo (Promega: G7572) was used in this method for test. • 1. HT-29 cells were cultured in T75 cell flasks (Corning, 430641) and the medium was placed in a 37° C., 5% CO2 incubator. Cells were passaged when reaching a cell density of 70%-80%, approximately twice per week. • 2. To perform the experiment, the test compounds were dissolved in DMSO to prepare a 10 mM stock solution, and the test compounds were added to the 384-well cell test plate (Corning, 3765) at the predetermined concentration using ECHO. • 3. The cell culture flask was taken out, the medium was removed, and the cells were rinsed with PBS. Then 2 mL of trypsin (with 0.25% EDTA) was added, and the flask was placed in the incubator for digestion for 4 minutes. • 4. Digestion was stopped by adding 4 mL of complete medium and the cell suspension was transferred to a centrifuge tube and centrifuged at 1000 rpm for 4 minutes. • 5. The cells were resuspended in 6 mL of complete medium, followed by cell counting. The cell density was adjusted to 4,170 cells/mL, and the cells were added to a 384-well plate at 60 μL/well. • 6. The 384-well plate was centrifuged at 500 rpm for 1 minute, and then placed in a 37° C., 5% CO2 incubator for 6 days of cultivation. • 7. Six days later, the cell culture plate was equilibrated for 10 minutes at room temperature, 25 μL of Cell Titer-Glo was added to each well, and the mixture was shaken and mixed well and let stand for 5 minutes. The luminescence values for samples in various wells were read using a microplate reader in Luminescence mode.
as §1, with “of” for “of A2780”, “(0.3%” for “(0.2%”

Chain of KIF18A (Q8NI77 whole entry): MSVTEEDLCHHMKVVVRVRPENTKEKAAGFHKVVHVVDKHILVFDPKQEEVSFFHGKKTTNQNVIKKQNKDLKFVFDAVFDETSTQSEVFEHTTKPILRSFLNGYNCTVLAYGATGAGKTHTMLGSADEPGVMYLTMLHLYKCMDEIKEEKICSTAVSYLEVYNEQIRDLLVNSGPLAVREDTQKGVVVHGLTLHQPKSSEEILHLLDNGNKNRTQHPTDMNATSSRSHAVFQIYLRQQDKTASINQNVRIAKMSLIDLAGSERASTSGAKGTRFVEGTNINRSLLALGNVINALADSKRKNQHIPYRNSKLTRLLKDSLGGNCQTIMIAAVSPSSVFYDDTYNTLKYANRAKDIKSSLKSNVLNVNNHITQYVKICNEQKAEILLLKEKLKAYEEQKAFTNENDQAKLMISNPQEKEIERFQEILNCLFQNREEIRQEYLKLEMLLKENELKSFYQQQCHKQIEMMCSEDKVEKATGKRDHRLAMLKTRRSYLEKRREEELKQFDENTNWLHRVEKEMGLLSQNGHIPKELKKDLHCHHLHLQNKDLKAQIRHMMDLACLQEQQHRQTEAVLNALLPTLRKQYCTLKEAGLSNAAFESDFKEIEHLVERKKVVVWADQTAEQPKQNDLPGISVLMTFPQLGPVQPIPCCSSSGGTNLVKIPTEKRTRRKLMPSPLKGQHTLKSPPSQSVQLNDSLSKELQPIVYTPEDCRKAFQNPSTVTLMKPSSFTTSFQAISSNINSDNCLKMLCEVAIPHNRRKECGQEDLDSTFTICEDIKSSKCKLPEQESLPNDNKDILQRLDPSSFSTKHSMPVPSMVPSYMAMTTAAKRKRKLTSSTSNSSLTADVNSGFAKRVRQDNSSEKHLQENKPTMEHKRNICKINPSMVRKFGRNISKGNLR
Chain of KIF18A (P02550 whole entry partner): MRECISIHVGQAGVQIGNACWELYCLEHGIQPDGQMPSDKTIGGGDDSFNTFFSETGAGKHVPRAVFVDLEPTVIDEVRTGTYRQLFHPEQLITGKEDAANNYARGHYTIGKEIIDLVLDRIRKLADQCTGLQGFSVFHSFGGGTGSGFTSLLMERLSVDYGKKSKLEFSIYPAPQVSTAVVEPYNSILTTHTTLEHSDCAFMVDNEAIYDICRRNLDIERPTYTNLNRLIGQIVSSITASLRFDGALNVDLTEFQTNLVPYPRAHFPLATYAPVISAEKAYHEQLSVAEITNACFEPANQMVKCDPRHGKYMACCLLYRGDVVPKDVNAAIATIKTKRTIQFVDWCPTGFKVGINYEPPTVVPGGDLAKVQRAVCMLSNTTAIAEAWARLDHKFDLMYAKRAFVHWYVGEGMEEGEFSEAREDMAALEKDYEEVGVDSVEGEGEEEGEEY
Chain of KIF18A (P02554 whole entry partner): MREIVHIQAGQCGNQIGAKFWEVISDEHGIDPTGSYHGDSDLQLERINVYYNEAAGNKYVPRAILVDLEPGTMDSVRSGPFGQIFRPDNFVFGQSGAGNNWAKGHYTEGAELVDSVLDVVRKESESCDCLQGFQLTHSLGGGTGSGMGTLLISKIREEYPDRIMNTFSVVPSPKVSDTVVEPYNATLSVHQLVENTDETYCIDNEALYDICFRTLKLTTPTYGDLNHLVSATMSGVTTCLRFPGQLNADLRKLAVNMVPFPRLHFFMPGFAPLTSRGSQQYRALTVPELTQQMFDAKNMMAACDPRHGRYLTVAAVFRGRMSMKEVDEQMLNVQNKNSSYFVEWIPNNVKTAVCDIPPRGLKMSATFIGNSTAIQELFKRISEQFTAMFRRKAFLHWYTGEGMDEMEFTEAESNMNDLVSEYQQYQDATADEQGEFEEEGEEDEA

Row | SMILES | IC50 [1] [nM] | IC50 [2] [nM] | IC50 ([3]; Homo sapiens, HT-29, 144 h) [nM] | IC50 ([2]; Homo sapiens, A2780, 144 h) [nM] | IC50 [3] [nM]
1 | CC1Cn2c(cc3c(NC(=O)c4ccc(NS(=O)(=O)CCO)cc4N4CCC5(CC4)CC5)cccc32)C(C)O1 (single isomer, unassigned) [Compound 312-P2A, N-(1,3-dimethyl-3,4-dihydro-1H-[1,4]oxazino[4,3-a]indol-9-yl)-4-((2-hydroxyethyl)sulfonamido)-2-(6-azaspiro[2.5]oct-6-yl)benzamide] | ≤ 50 | 6500 | ≤ 200 | – | –
2 | CC1Cn2c(cc3c(NC(=O)c4ccc(NS(=O)(=O)CCO)cc4N4CCC5(CC4)CC5)cccc32)C(C)O1 (single isomer, unassigned) [Compound 312-P3, N-(1,3-dimethyl-3,4-dihydro-1H-[1,4]oxazino[4,3-a]indol-9-yl)-4-((2-hydroxyethyl)sulfonamido)-2-(6-azaspiro[2.5]oct-6-yl)benzamide] | 50 to 500 | – | – | > 10000 | ≤ 200
3 | COC1c2cc3c(NC(=O)c4ccc(NS(=O)(=O)CCO)cc4N4CCC5(CC4)CC5)cccc3n2CCC1(F)F (single isomer, unassigned) [Example 340-P2] | ≤ 50 | > 10000 | – | – | ≤ 200
4 | CC1(C)Cn2c(nc3c(NC(=O)c4ccc(NS(=O)(=O)CCO)cc4N4CCC5(CC4)CC5)cccc32)CO1 [Compound 391, N-(3,3-dimethyl-3,4-dihydro-1H-benzo[4,5]imidazo[2,1-c][1,4]oxazin-9-yl)-4-((2-hydroxyethyl)sulfonamido)-2-(6-azaspiro[2.5]octan-6-yl)benzamide] | 50 to 500 | – | ≤ 200 | > 10000 | –
5 | CC1(C)Cn2c(cc3c(NC(=O)c4ccc(NS(=O)(=O)CCO)cc4N4CCC5(CC4)CC5)ccc(C#N)c32)CO1 [Compound 392, N-(6-cyano-3,3-dimethyl-3,4-dihydro-1H-[1,4]oxazino[4,3-a]indol-9-yl)-4-((2-hydroxyethyl)sulfonamido)-2-(6-azaspiro[2.5]oct-6-yl)benzamide] | ≤ 50 | – | ≤ 200 | 6100 | –
6 | CC1(C)Cn2c(cc3c(NC(=O)c4ccc(NS(=O)(=O)CCO)cc4N4CCC(=C(F)F)CC4)ccc(C#N)c32)CO1 [Compound 393, N-(6-cyano-3,3-dimethyl-3,4-dihydro-1H-[1,4]oxazino[4,3-a]indol-9-yl)-2-(4-(difluoromethylene)piperidin-1-yl)-4-((2-hydroxyethyl)sulfonamido)benzamide] | 50 to 500 | – | ≤ 200 | > 10000 | –
7 | CC1(C)Cn2c(nc3c(NC(=O)c4ccc(NS(=O)(=O)CCO)cc4N4CCC(=C(F)F)CC4)cccc32)CO1 [Compound 394, 2-(4-(difluoromethylene)piperidin-1-yl)-N-(3,3-dimethyl-3,4-dihydro-1H-benzo[4,5]imidazo[2,1-c][1,4]oxazin-9-yl)-4-((2-hydroxyethyl)sulfonamido)benzamide] | ≤ 50 | – | ≤ 200 | > 10000 | –
8 | CC1(C)OCCn2c1cc1c(NC(=O)c3ccc(NS(=O)(=O)CCO)cc3N3CCC(=C(F)F)CC3)cccc12 [Compound 395, 2-(4-(difluoromethylene)piperidin-1-yl)-N-(1,1-dimethyl-3,4-dihydro-1H-[1,4]oxazino[4,3-a]indol-9-yl)-4-((2-hydroxyethyl)sulfonamido)benzamide] | ≤ 50 | – | 200 to 1000 | > 10000 | –
9 | O=C(Nc1cccc2c1cc1n2CC2CCC1O2)c1ccc(NS(=O)(=O)CCO)cc1N1CCC(=C(F)F)CC1 (centres unmarked) [Compound 398, 2-(4-(difluoromethylene)piperidin-1-yl)-4-((2-hydroxyethyl)sulfonamido)-N-(7,8,9,10-tetrahydro-6H-7,10-epoxyazeto[1,2-a]indol-1-yl)benzamide] | 50 to 500 | > 10000 | – | – | –
10 | COc1ccc(NC(=O)c2ccc(NS(=O)(=O)CCO)cc2N2CCC(=C(F)F)CC2)c2cc3n(c12)CCOC3 [Compound 405, 2-(4-(difluoromethylene)piperidin-1-yl)-4-((2-hydroxyethyl)sulfonamido)-N-(6-methoxy-3,4-dihydro-1H-[1,4]oxazinyl[4,3-a]indol-9-yl)benzamide] | ≤ 50 | > 10000 | – | – | ≤ 200
11 | Nc1cc(NS(=O)(=O)CCO)cc(N2CCC3(CC2)CC3)c1C(=O)Nc1cccc(N2CCC(F)(F)CC2)c1 [Example 1, 2-amino-N-(3-(4,4-difluoropiperidin-1-yl)phenyl)-4-((2-hydroxyethyl)sulfonamide)-6-(6-azaspiro[2.5]octan-6-yl)benzamide] | ≤ 50 | – | – | – | ≤ 200
12 | CNc1cc(NS(=O)(=O)CCO)cc(N2CCC3(CC2)CC3)c1C(=O)Nc1cc(C)nc(N2CCC(F)(F)CC2)n1 [Example 4, N-(2-(4,4-difluoropiperidin-1-yl)-6-methylpyrimidin-4-yl)-4-(2-hydroxyethylsulfonamide)-2-methylamino-6-(6-azaspiro[2.5]octan-6-yl)benzamide] | 50 to 500 | 8300 | – | – | ≤ 200
13 | O=C(Nc1cccc2c1cc1n2CCOC1)c1ccc(NS(=O)(=O)CCO)cc1N1CCC2(CC1)CC2 [Example 235, N-(3,4-dihydro-1H-[1, 4]oxazino[4,3-a]indol-9-yl)-4-(2-hydroxyethylsulfonamido)-2-(6-azaspiro[2.5]octan-6-yl)benzamide] | ≤ 50 | – | ≤ 200 | > 10000 | –
14 | O=C(Nc1ccc(F)c2c1nc1n2CCOC1)c1ccc(NS(=O)(=O)CCO)cc1N1CCC2(CC1)CC2 [Example 308, N-(6-fluoro-3,4-dihydro-1H-benzo[4,5]imidazo[2,1-c][1,4]oxazin-9-yl)-4-((2-hydroxyethyl)sulfonamido)-2-(6-azaspiro[2.5]octan-6-yl)benzamide] | ≤ 50 | – | ≤ 200 | > 10000 | –
15 | N#Cc1ccc(NC(=O)c2ccc(NS(=O)(=O)CCO)cc2N2CCC3(CC2)CC3)c2cc3n(c12)CCOC3 [Example 310, N-(6-cyano-3,4-dihydro-1H-[1,4]oxazino[4,3-a]indol-9-yl)-4-((2-hydroxyethyl)sulfonamido)-2-(6-azaspiro[2.5]oct-6-yl)benzamide] | ≤ 50 | – | ≤ 200 | > 10000 | –
16 | O=C(Nc1cccc2c1cc1n2CCOC1)c1ccc(NS(=O)(=O)CCO)cc1N1CCC(=C(F)F)CC1 [Example 319, 2-(4-difluoromethylene)piperidin-1-yl-N-(3,4-dihydro-1H-[1,4]oxazino[4,3-a]indol-9-yl)-4-((2-hydroxyethyl)sulfonamide) benzamide] | ≤ 50 | > 10000 | – | – | 200 to 1000
17 | O=C(Nc1ccc(F)c2c1cc1n2CCOC1)c1ccc(NS(=O)(=O)CCO)cc1N1CCC(=C(F)F)CC1 [Example 321, 2-(4-(difluoromethylene)piperidin-1-yl)-N-(6-fluoro-3,4-dihydro-1H-[1,4]oxazino[4,3-a]indol-9-yl)-4-((2-hydroxyethyl)sulfonamido)benzamide] | ≤ 50 | – | 200 to 1000 | > 10000 | –
18 | N#Cc1ccc(NC(=O)c2ccc(NS(=O)(=O)CCO)cc2N2CCC(=C(F)F)CC2)c2cc3n(c12)CCOC3 [Example 364, N-(6-cyano-3,4-dihydro-1H-[1,4]oxazino[4,3-a]indol-9-yl)-2-(4-(difluoromethylene)piperidin-1-yl)-4-((2-hydroxyethyl)sulfonamido)benzamide] | ≤ 50 | – | 200 to 1000 | 9400 | –
19 | CC1(C)Cn2c(cc3c(NC(=O)c4ccc(NS(=O)(=O)CCO)cc4N4CCC5(CC4)CC5)ccc(OC(F)F)c32)CO1 [Example 523] | 50 to 500 | – | – | – | –
